The values below come from patent publication US20240287076A1, “COMPOUNDS FOR TARGETING DEGRADATION OF BRUTON'S TYROSINE KINASE” (BIOGEN MA INC., priority 2021, published 2024).

A value given as a limit tells only on which side of the number the result lay.

The target in the test is T1, BTK (Homo sapiens, UniProt Q06187).
T1 construct: The GM01501.3 cell line endogenously expresses BTK with a HiBiT fusion tag via CRISPR knock-in at its C-terminal region; endogenous in cells; host or cells: GM01501.3 (GM01501 cells engineered by CRISPR knock-in of HiBiT at the BTK locus)
T1 sequence (Q06187 whole entry, the tested form may be a part): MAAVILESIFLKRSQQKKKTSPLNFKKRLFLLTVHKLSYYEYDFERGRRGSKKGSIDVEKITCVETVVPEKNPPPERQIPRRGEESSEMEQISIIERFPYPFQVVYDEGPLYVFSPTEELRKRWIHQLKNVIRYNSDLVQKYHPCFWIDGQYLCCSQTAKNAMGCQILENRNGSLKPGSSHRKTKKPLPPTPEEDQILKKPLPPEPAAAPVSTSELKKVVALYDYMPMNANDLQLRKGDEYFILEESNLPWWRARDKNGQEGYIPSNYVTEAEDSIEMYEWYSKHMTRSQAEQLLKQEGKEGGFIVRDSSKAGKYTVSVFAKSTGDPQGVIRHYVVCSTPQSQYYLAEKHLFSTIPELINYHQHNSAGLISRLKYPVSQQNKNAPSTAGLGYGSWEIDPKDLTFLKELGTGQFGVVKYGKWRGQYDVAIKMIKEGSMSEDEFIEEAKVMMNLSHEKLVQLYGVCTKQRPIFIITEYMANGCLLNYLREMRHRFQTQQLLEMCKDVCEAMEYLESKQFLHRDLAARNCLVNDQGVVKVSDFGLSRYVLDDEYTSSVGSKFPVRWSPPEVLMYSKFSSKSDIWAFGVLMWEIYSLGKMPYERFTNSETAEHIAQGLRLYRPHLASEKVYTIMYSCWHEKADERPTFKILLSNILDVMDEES
The experiment in a line: BTK degradation assay using the HiBiT Method (Nano-Glo HiBiT Lytic Assay, GM01501.3 cells). The class given is cell-based. The settings on record: HiBiT Degradation on GM01501.3 BTK @ 6 hours. The protocol:
Selected compounds were tested in a BTK degradation assay using the HiBiT Method. Park Memorial Institute (RPM1) 1640 Medium with phenol red, L-Glutamine, Sodium Pyruvate, and fetal bovine serum (FBS) were purchased from Gibco (Grand Island, NY, USA). Nano-Glo® HiBiT Lytic Assay System was purchased from Promega (Madison, WI, USA). GM01501 cells were obtained from the NIGMS Human Genetic Cell Repository at the Coriell Institute for Medical Research. The GM01501.3 cell line endogenously expresses BTK with a HiBiT fusion tag via CRISPR knock-in at its C-terminal region. It was engineered by electroporation with the Neon Transfection System (Themo Fisher Scientific), according to manufacturer indications. Electroporation conditions: 1 pulse of 1,350 V for 30 ms for 0.5×10_6 cells. Cell culture flasks and 384-well microplates were acquired from VWR (Radnor, PA, USA). BTK degradation was evaluated by quantification of luminescent signal using Nano-Glo® HiBiT Lytic Assay kit. Test compounds were added to the 384-well plate from a top concentration of 10 μM with 11 points, half log titration in duplicates. GM01501.3 cells were added into 384-well plates at a cell density of 10,000 cells per well in a total volume of 30 μl. The plates were kept at 37° C. with 5% CO2 for 6 hours. Negative control wells included cells treated with DMSO only and positive control wells included only growing media, without Nano-Glo® HiBiT Lytic reagent. After a 6-hour incubation, Nano-Glo® HiBiT Lytic Assay reagent was added to the cells following manufacturer indications. Luminescence was acquired on EnVision™ Multilabel Reader (PerkinElmer, Santa Clara, CA, USA). […] “++++” represents a DC50 value of less than 100 nM. “+++” represents a DC50 value of 100 nM-500 nM. “++” represents a DC50 value of 500 nM-1000 nM. “+” represents a DC50 value of greater than 1000 nM.
On the technique in general: With HiBiT, luminescence reflects the tagged protein that the partner subunit can reach.
Turning to `CN(Cc1ccc(-c2ncnn3cc(-c4ccc(CN5CCC(c6ccc7c(N8CCC(=O)NC8=O)nn(C)c7c6)CC5)cc4)cc23)cc1F)C(=O)c1noc(C(C)(C)C)n1` [Example 37, 5-tert-butyl-N-[[4-[6-[4-[[4-[3-(2,4-dioxohexahydropyrimidin-1-yl)-1-methyl-indazol-6-yl]-1-piperidyl]methyl]phenyl]pyrrolo[2,1-f][1,2,4]triazin-4-yl]-2-fluoro-phenyl]methyl]-N-methyl-1,2,4-oxadiazole-3-carboxamide], the DC50 (usually the concentration giving 50% degradation) lay in the range of 0.1 to 0.5 µM. Compound `Cc1cc(-c2ncnn3cc(CCCN4CCC(c5ccc(NC6CCC(=O)NC6=O)cc5)CC4)cc23)ccc1CNC(=O)c1noc(C(C)(C)C)n1` (stereo not drawn) [Example 127, 5-tert-butyl-N-[[4-[6-[3-[4-[4-[(2,6-dioxo-3-piperidyl)amino]phenyl]-1-piperidyl]propyl]pyrrolo[2,1-f][1,2,4]triazin-4-yl]-2-methyl-phenyl]methyl]-1,2,4-oxadiazole-3-carboxamide] yielded a 50% degradation concentration (DC50) below 0.1 µM.

In turn, `Cc1cc(-c2ncnn3cc(CCN4CCC(c5ccc(NC6CCC(=O)NC6=O)cn5)CC4)cc23)ccc1CNC(=O)c1noc(C(C)(C)C)n1` (stereo not drawn) [Example 252, 5-(tert-butyl)-N-(4-(6-(2-(4-(5-((2,6-dioxopiperidin-3-yl)amino)pyridin-2-yl)piperidin-1-yl)ethyl)pyrrolo[2,1-f][1,2,4]triazin-4-yl)-2-methylbenzyl)-1,2,4-oxadiazole-3-carboxamide] showed a DC50 below 0.1 µM. As for `Cc1cc(-c2ncnn3cc(CCC(F)(F)CN4CCC(c5ccc(C6CCC(=O)NC6=O)cc5)CC4)cc23)ccc1CNC(=O)c1noc(C(C)(C)C)n1` (stereo not drawn) [Example 168, 5-tert-butyl-N-[[4-[6-[4-[4-[4-(2,6-dioxo-3-piperidyl)phenyl]-1-piperidyl]-3,3-difluoro-butyl]pyrrolo[2,1-f][1,2,4]triazin-4-yl]-2-methyl-phenyl]methyl]-1,2,4-oxadiazole-3-carboxamide], the DC50 was below 0.1 µM. With `CC(C)(C)c1nc(C(=O)NCc2ccc(-c3ncnn4cc(-c5ccc(CN6CCC(c7ccc(NC8CCC(=O)NC8=O)cc7)CC6)cc5)cc34)cc2)no1` (stereo not drawn) [Example 41, 5-tert-butyl-N-[[4-[6-[4-[[4-[4-[(2,6-dioxo-3-piperidyl)amino]phenyl]-1-piperidyl]methyl]phenyl]pyrrolo[2,1-f][1,2,4]triazin-4-yl]phenyl]methyl]-1,2,4-oxadiazole-3-carboxamide], the 50% degradation concentration (DC50) was below 0.1 µM. With `Cc1cc(-c2ncnn3cc(-c4ccc(-c5n[nH]cc5CN5CCC(c6ccc(C7CCC(=O)NC7=O)cc6)CC5)s4)cc23)ccc1CNC(=O)c1noc(C(C)(C)C)n1` (stereo not drawn) [Example 220, 5-(tert-butyl)-N-(4-(6-(5-(4-((4-(4-(2,6-dioxopiperidin-3-yl)phenyl)piperidin-1-yl)methyl)-1H-pyrazol-3-yl)thiophen-2-yl)pyrrolo [2,1-f][1,2,4]triazin-4-yl)-2-methylbenzyl)-1,2,4-oxadiazole-3-carboxamide], the half-maximal degradation concentration (DC50) is below 0.1 µM. `CC(C)(C)c1nc(C(=O)NCc2ccc(-c3ncnn4cc(-c5ccc(OCCN6CCC(n7ccc(NC8CCC(=O)NC8=O)n7)CC6)cc5)cc34)cc2F)no1` (stereo not drawn) [Example 108, 5-tert-butyl-N-[[4-[6-[4-[2-[4-[3-[(2,6-dioxo-3-piperidyl)amino]pyrazol-1-yl]-1-piperidyl]ethoxy]phenyl]pyrrolo[2,1-f][1,2,4]triazin-4-yl]-2-fluoro-phenyl]methyl]-1,2,4-oxadiazole-3-carboxamide] showed a DC50 below 0.1 µM. For the compound `Cc1cc(-c2ccnc3sc(-c4ccc(CN5CCC(c6ccc(NC7CCC(=O)NC7=O)cc6)CC5)cc4)cc23)ccc1CNC(=O)c1noc(C(C)(C)C)n1` (stereo not drawn) [Example 157, 5-tert-butyl-N-[[4-[2-[4-[[4-[4-[(2,6-dioxo-3-piperidyl)amino]phenyl]-1-piperidyl]methyl]phenyl]thieno[2,3-b]pyridin-4-yl]-2-methyl-phenyl]methyl]-1,2,4-oxadiazole-3-carboxamide], the 50% degradation concentration (DC50) lay within 0.1 to 0.5 µM. Regarding `CC(C)(C)c1nc(C(=O)NCc2ccc(-c3ncnn4cc(CCCCN5CCC(c6ccc(NC7CCC(=O)NC7=O)cn6)CC5)cc34)cc2F)no1` (stereo not drawn) [Example 134, 5-tert-butyl-N-[[4-[6-[4-[4-[5-[(2,6-dioxo-3-piperidyl)amino]-2-pyridyl]-1-piperidyl]butyl]pyrrolo[2,1-f][1,2,4]triazin-4-yl]-2-fluoro-phenyl]methyl]-1,2,4-oxadiazole-3-carboxamide], the half-maximal degradation concentration (DC50) was below 0.1 µM. The compound `CC(C)(C)c1nc(C(=O)NCc2ccc(-c3ncnn4cc(CCCCN5CCC(c6c(F)cc(C7CCC(=O)NC7=O)cc6F)CC5)cc34)cc2F)no1` (stereo not drawn) [Example 136, 5-tert-butyl-N-[[4-[6-[4-[4-[4-(2,6-dioxo-3-piperidyl)-2,6-difluoro-phenyl]-1-piperidyl]butyl]pyrrolo[2,1-f][1,2,4]triazin-4-yl]-2-fluoro-phenyl]methyl]-1,2,4-oxadiazole-3-carboxamide] displayed a DC50 below 0.1 µM. The compound `Cc1cc(-c2ccnn3cc(-c4ccc(CN5CCC(c6ccc(NC7CCC(=O)NC7=O)cc6)CC5)cc4)cc23)ccc1CNC(=O)c1noc(C(C)(C)C)n1` (stereo not drawn) [Example 154, 5-tert-butyl-N-[[4-[6-[4-[[4-[4-[(2,6-dioxo-3-piperidyl)amino]phenyl]-1-piperidyl]methyl]phenyl]pyrrolo[1,2-b]pyridazin-4-yl]-2-methyl-phenyl]methyl]-1,2,4-oxadiazole-3-carboxamide] showed a 50% degradation concentration (DC50) below 0.1 µM.

Take `Cc1cc(-c2ncnn3cc(-c4ccc(CN5CCC(c6ccc(NC7CCC(=O)NC7=O)cc6)CC5)cc4)cc23)ccc1CNC(=O)c1ccc(C(F)F)cn1` (stereo not drawn) [Example 96, 5-(difluoromethyl)-N-[[4-[6-[4-[[4-[4-[(2,6-dioxo-3-piperidyl)amino]phenyl]-1-piperidyl]methyl]phenyl]pyrrolo[2,1-f][1,2,4]triazin-4-yl]-2-methyl-phenyl]methyl]pyridine-2-carboxamide]: the DC50 is below 0.1 µM. Compound `Cc1cc(-c2ncnn3cc(-c4ccc(CN5CCC(c6ccc(NC7CCC(=O)NC7=O)cc6)CC5)cc4)cc23)ccc1CNC(=O)C12CC(C(C)(C)C)(C1)C2` (stereo not drawn) [Example 75, 3-tert-butyl-N-[[4-[6-[4-[[4-[4-[(2,6-dioxo-3-piperidyl)amino]phenyl]-1-piperidyl]methyl]phenyl]pyrrolo[2,1-f][1,2,4]triazin-4-yl]-2-methyl-phenyl]methyl]bicyclo[1.1.1]pentane-1-carboxamide] gave a DC50 below 0.1 µM. In the case of `Cc1cc(-c2ncnn3cc(OC[C@@H](F)CN4CCC(c5ccc6c(N7CCC(=O)NC7=O)nn(C)c6c5)CC4)cc23)ccc1CNC(=O)c1noc(C(C)(C)C)n1` [Example 295, (S)-5-(tert-butyl)-N-(4-(6-(3-(4-(3-(2,4-dioxotetrahydropyrimidin-1(2H)-yl)-1-methyl-1H-indazol-6-yl)piperidin-1-yl)-2-fluoropropoxy)pyrrolo[2,1-f][1,2,4]triazin-4-yl)-2-methylbenzyl)-1,2,4-oxadiazole-3-carboxamide] it was below 0.1 µM.

`Cc1cc(-c2ncnn3cc(-c4cn(C)c(CN5CCC(c6ccc(C7CCC(=O)NC7=O)cc6)CC5)n4)cc23)ccc1CNC(=O)c1noc(C(C)(C)C)n1` (stereo not drawn) [Example 209, 5-(tert-butyl)-N-(4-(6-(2-((4-(4-(2,6-dioxopiperidin-3-yl)phenyl)piperidin-1-yl)methyl)-1-methyl-1H-imidazol-4-yl)pyrrolo[2,1-f][1,2,4]triazin-4-yl)-2-methylbenzyl)-1,2,4-oxadiazole-3-carboxamide] showed a DC50 below 0.1 µM.
